For test [1], the system named is HCT-116 (human colon) cells. In words: Cell-Titer Glo Cell Growth Inhibition Assay. Type of test: cell-based. The note with it: HCT-116 cells, 72 h incubation, CellTiter-Glo, read-out: HCT116 IC50. The procedure: A549-L (human lung), Colo 205 (human colon), HCT-116 (human colon), HT29 (human colon), MX-1 (human breast), SKOV3 (human ovary) and P388 (murine leukemia) cell lines were cultured in RPM11640 containing 10% fetal bovine serum at 37° C. in a 5% CO2 incubator. Cell lines were split into T75 flasks (Falcon #353136) two to three days prior to assay set up at density which yields approximately 70-80% confluency at time of harvest for assay. Cells were harvested using 0.25% trypsin with EDTA (Glibco/Invitrogen #25200-056), Cell counts were performed on cell suspensions using Trypan Blue exclusion staining, cells were then plated in 105 µL of culture media per well at the following densities in 96 well Costar #3916 black flat bottom plates: A549-L 500 cells/well, Colo205 500 cells/well, HCT-116 500 cells/well, HT29 500 cells/well, MX-1 500 cells/well, SKOV3 500 cells/well and P388 250 cells/well. All plates were placed at 5% CO2 37° C. overnight and then test compounds were added the following day. One plate of each cell type was treated with CellTiter-Glo (Promega #G7573) for a day 0 proliferation measurement and read as described below. The test compounds were prepared in clear U bottom polypropylene 96 well plates (Falcon #35-1190 with consecutive two fold dilutions. 9 uL of these dilutions was added into each well of the cell plates. The final concentration of DMSO in all wells was 0.15%. Cells were incubated at 37° C., 5% CO2 for 72 h. Following 72 h of incubation with compounds each plate was developed and read. CellTiter-Glo reagent was added to assay plates using a volume equivalent to the cell culture volume in the wells. Plates were shaken for approximately 2 min and incubated at rt for approximately 15 min and the chemiluminescent signal was read on the Victor V or Envison 2100 reader. […] Concentration of compound that inhibited 50% of cell growth (IC50) was analyzed by 4 or 6 parameter fit of data using XLfit, value of no cell addition was substracted from all samples for background.
A general note: ATP-based viability assays read luminescence as a measure of living cells.

Another test concerns the target T1, PLK1 kinase domain (Homo sapiens, UniProt P53350).
T1 construct: made in house; host or cells: baculovirus infected T. ni cells
Briefly: Assay for Inhibition of PLK1 (SPA, 33P-ATP). It counts as biochemical. The following applies: 2 nM PLK1 kinase domain, 1 μM ATP, 22° C.; read-out: PLK1 pIC50 (converted). Here is the method: A. Preparation of 6× N-Terminal His-Tagged PLK Kinase Domain
All procedures were performed at 4° C. Cells were lysed in 50 mM HEPES, 200 mM NaCl, 50 mM imidazole, 5% glycerol; pH 7.5. The homogenate was centrifuged at 14K rpm in a SLA-1500 rotor for 1 hr and the supernatant filtered through a 1.2 micron filter. The supernatant was loaded onto a Nickel chelating Sepharose (Amersham Pharmacia) column and washed with lysis buffer. Protein was eluted using 20%, 30% and 100% buffer B steps where buffer B was 50 mM HEPES, 200 mM NaCl, 300 mM imidazole, 5% glycerol; pH 7.5. Fractions containing PLK were determined by SDS-PAGE. Fractions containing PLK were diluted five-fold with 50 mM HEPES, 1 mM DTT, 5% glycerol; pH 7.5, then loaded on an SP Sepharose (Amersham Pharmacia) column. After washing the column with 50 mM HEPES, 1 mM DTT, 5% glycerol; pH 7.5, PLK was step eluted with 50 mM HEPES, 1 mM DTT, 500 mM NaCl; 5% glycerol; pH 7.5. PLK was concentrated using a 10 kDa molecular weight cutoff membrane and then loaded onto a Superdex 200 gel filtration (Amersham Pharmacia) column equilibrated in 25 mM HEPES, 1 mM DTT, 500 mM NaCl, 5% glycerol; pH 7.5. Fractions containing PLK were determined by SDS-PAGE. PLK was pooled, aliquoted and stored at −80° C. Samples were quality controlled using mass spectrometry, N-terminal sequencing and amino acid analysis.
B. Enzyme Activity +/− Inhibitors was Determined as Follows:
All measurements were obtained under conditions where signal production increased linearly with time and enzyme. Test compounds were added to white 384-well assay plates (0.1 μL for 10 μL and some 20 μL assays, 1 μL for some 20 μL assays) at variable known concentrations in 100% DMSO. DMSO (1-5% final, as appropriate) and EDTA (65 mM in reaction) were used as controls.
Reaction Mix (10 or 20 μL) was quickly added to each well immediately following addition of enzyme via automated liquid handlers and incubated 1-1.5 h at 22° C. The 20 μL enzymatic reactions were stopped with 50 μL of stop mix (50 mM EDTA, 4.0 mg/mL Streptavidin SPA beads in Standard Dulbecco's PBS (without Mg^2+ and Ca^2+), 50 μM ATP) per well. The 10 μL reactions were stopped with 10 μL of stop mix (50 mM EDTA, 3.0 mg/mL Streptavidin-coupled SPA Imaging Beads (“LeadSeeker”) in Standard Dulbecco's PBS (without Mg^2+ and Ca^2+), 50 μM ATP) per well. Plates were sealed with clear plastic seals, spun at 500×g for 1 min or settled overnight, and counted in Packard TopCount for 30 seconds/well (regular SPA) or imaged using a Viewlux imager (LeadSeeker SPA). Signal above background (EDTA controls) was converted to percent inhibition relative to that obtained in control (DMSO-only) wells.

Molecules are shown by their SMILES. Some results are limits rather than exact numbers.

T1 sequence (P53350 21-346): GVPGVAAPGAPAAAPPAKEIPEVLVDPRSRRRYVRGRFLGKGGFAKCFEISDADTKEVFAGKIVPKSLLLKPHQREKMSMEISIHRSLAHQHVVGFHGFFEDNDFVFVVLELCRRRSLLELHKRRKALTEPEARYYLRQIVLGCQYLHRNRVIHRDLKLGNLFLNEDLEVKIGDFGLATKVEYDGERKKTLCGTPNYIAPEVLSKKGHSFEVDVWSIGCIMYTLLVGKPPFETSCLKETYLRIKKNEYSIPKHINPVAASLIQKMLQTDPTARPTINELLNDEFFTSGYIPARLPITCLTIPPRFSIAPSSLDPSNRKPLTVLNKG

In the case of `C[C@@H](Oc1cc(-n2cnc3cc(-c4ccnc(NCCN(C)C)c4)ccc32)sc1C(N)=O)c1ccccc1C(F)(F)F` [Example 1, 5-[5-(2-{[2-(Dimethylamino)ethyl]amino}-4-pyridinyl)-1H-benzimidazol-1-yl]-3-({(1R)-1-[2-(trifluoromethyl)phenyl]ethyl}oxy)-2-thiophenecarboxamide], in test [1], the IC50 is less than 0.5 µM.
With `CNCCNc1cc(-c2ccc3c(c2)ncn3-c2cc(O[C@H](C)c3ccccc3C(F)(F)F)c(C(N)=O)s2)ccn1` [Example 2, 5-[5-(2-{[2-(Methylamino)ethyl]amino}-4-pyridinyl)-1H-benzimidazol-1-yl]-3-({(1R)-1-[2-(trifluoromethyl)phenyl]ethyl}oxy)-2-thiophenecarboxamide], the IC50 is less than 0.1 µM at PLK1 kinase domain and less than 0.5 µM in test [1].
On to `C[C@@H](Oc1cc(-n2cnc3cc(-c4ccnc(NC(=O)CN(C)C)c4)ccc32)sc1C(N)=O)c1ccccc1C(F)(F)F` [Example 3, 5-(5-{2-[(N,N-dimethylglycyl)amino]-4-pyridinyl}-1H-benzimidazol-1-yl)-3-({(1R)-1-[2-(trifluoromethyl)phenyl]ethyl}oxy)-2-thiophenecarboxamide], for which the IC50 on PLK1 kinase domain is less than 0.1 µM; in test [1], less than 0.5 µM.
For the molecule `C[C@@H](Oc1cc(-n2cnc3cc(-c4ccnc(NC(=O)CN)c4)ccc32)sc1C(N)=O)c1ccccc1C(F)(F)F` [Example 4, 5-{5-[2-(Glycylamino)-4-pyridinyl]-1H-benzimidazol-1-yl}-3-({(1R)-1-[2-(trifluoromethyl)phenyl]ethyl}oxy)-2-thiophenecarboxamide], the results for the IC50 (at PLK1 kinase domain; in test [1]) were less than 0.1 µM and less than 0.5 µM, respectively.
Turning to `C[C@@H](Oc1cc(-n2cnc3cc(-c4ccnc(NCCCN(C)C)c4)ccc32)sc1C(N)=O)c1ccccc1C(F)(F)F` [Example 5, 5-[5-(2-{[3-(Dimethylamino)propyl]amino}-4-pyridinyl)-1H-benzimidazol-1-yl]-3-([(1R)-1-[2-(trifluoromethyl)phenyl]ethyl]oxy)-2-thiophenecarboxamide], the IC50 was less than 0.1 µM at PLK1 kinase domain and less than 0.5 µM in test [1].
On to `C[C@@H](Oc1cc(-n2cnc3cc(-c4ccnc(NCCN)c4)ccc32)sc1C(N)=O)c1ccccc1C(F)(F)F` [Example 6, 5-(5-{2-[(2-Aminoethyl)amino]-4-pyridinyl}-1H-benzimidazol-1-yl)-3-([(1R)-1-[2-(trifluoromethyl)phenyl]ethyl]oxy)-2-thiophenecarboxamide], for which the IC50 at PLK1 kinase domain was less than 0.1 µM; in test [1], less than 0.5 µM.
For `C[C@@H](Oc1cc(-n2cnc3cc(-c4ccnc(N(C)CCN(C)C)c4)ccc32)sc1C(N)=O)c1ccccc1C(F)(F)F` [Example 7, 5-(5-{2-[[2-(Dimethylamino)ethyl](methyl)amino]-4-pyridinyl}-1H-benzimidazol-1-yl)-3-({(1R)-1-[2-(trifluoromethyl)phenyl]ethyl}oxy)-2-thiophenecarboxamide], in that order: less than 0.1 µM and less than 0.5 µM.
Turning to `C[C@@H](Oc1cc(-n2cnc3cc(-c4ccnc(N(C)CCCN(C)C)c4)ccc32)sc1C(N)=O)c1ccccc1C(F)(F)F` [Example 8, 5-(5-{2-[[3-(Dimethylamino)propyl](methyl)amino]-4-pyridinyl}-1H-benzimidazol-1-yl)-3-({(1R)-1-[2-(trifluoromethyl)phenyl]ethyl}oxy)-2-thiophenecarboxamide], the IC50 is less than 0.1 µM on PLK1 kinase domain and less than 0.5 µM in test [1].
Turning to `C[C@@H](Oc1cc(-n2cnc3cc(-c4ccnc(NCCCN5CCN(C)CC5)c4)ccc32)sc1C(N)=O)c1ccccc1C(F)(F)F` [Example 9, 5-[5-(2-{[3-(4-Methyl-1-piperazinyl)propyl]amino}-4-pyridinyl)-1H-benzimidazol-1-yl]-3-({(1R)-1-[2-(trifluoromethyl)phenyl]ethyl}oxy)-2-thiophenecarboxamide], the IC50 is less than 0.1 µM at PLK1 kinase domain and less than 0.5 µM in test [1].
`C[C@@H](Oc1cc(-n2cnc3cc(-c4ccnc(NCCN(C)C)c4)ccc32)sc1C(N)=O)c1ccccc1Cl` [Example 10, 3-{[(1R)-1-(2-chlorophenyl)ethyl]oxy}-5-[5-(2-{[2-(dimethylamino)ethyl]amino}-4-pyridinyl)-1H-benzimidazol-1-yl]-2-thiophenecarboxamide]: the IC50 on PLK1 kinase domain is less than 0.1 µM; in test [1], less than 0.5 µM.
Take `C[C@@H](Oc1cc(-n2cnc3cc(-c4ccnc(NCCCN5CCN(C)CC5)c4)ccc32)sc1C(N)=O)c1ccccc1Cl` [Example 11, 3-{[(1R)-1-(2-chlorophenyl)ethyl]oxy}-5-[5-(2-{[3-(4-methyl-1-piperazinyl)propyl]amino}-4-pyridinyl)-1H-benzimidazol-1-yl]-2-thiophenecarboxamide]: the results for the IC50 (on PLK1 kinase domain; in test [1]) were less than 0.1 µM and less than 0.5 µM, respectively.
In the case of `C[C@@H](Oc1cc(-n2cnc3cc(-c4ccnc(NCCN5CCOCC5)c4)ccc32)sc1C(N)=O)c1ccccc1Cl` [Example 12, 3-{[(1R)-1-(2-chlorophenyl)ethyl]oxy}-5-[5-(2-{[2-(4-morpholinyl)ethyl]amino}-4-pyridinyl)-1H-benzimidazol-1-yl]-2-thiophenecarboxamide], the results for the IC50 (on PLK1 kinase domain; in test [1]) were less than 0.1 µM and less than 0.5 µM, respectively.
Consider `C[C@@H](Oc1cc(-n2cnc3cc(-c4ccnc(NC[C@@H](O)CO)c4)ccc32)sc1C(N)=O)c1ccccc1Cl` [Example 13, 3-{[(1R)-1-(2-chlorophenyl)ethyl]oxy}-5-[5-(2-{[(2R)-2,3-dihydroxypropyl]amino}-4-pyridinyl)-1H-benzimidazol-1-yl]-2-thiophenecarboxamide], for which the results for the IC50 (on PLK1 kinase domain; in test [1]) were less than 0.1 µM and less than 0.5 µM, respectively.
As for `C[C@@H](Oc1cc(-n2cnc3cc(-c4ccnc(NCCO)c4)ccc32)sc1C(N)=O)c1ccccc1Cl` [Example 14, 3-{[(1R)-1-(2-chlorophenyl)ethyl]oxy}-5-(5-{2-[(2-hydroxyethyl)amino]-4-pyridinyl}-1H-benzimidazol-1-yl)-2-thiophenecarboxamide], the IC50 in test [1] is less than 0.5 µM.
Consider `CC(C)[C@H](N)C(=O)OCCNc1cc(-c2ccc3c(c2)ncn3-c2cc(O[C@H](C)c3ccccc3Cl)c(C(N)=O)s2)ccn1` [Example 15, 2-({4-[1-(5-(Aminocarbonyl)-4-{[(1R)-1-(2-chlorophenyl)ethyl]oxy}-2-thienyl)-1H-benzimidazol-5-yl]-2-pyridinyl}amino)ethyl L-valinate], for which the IC50 was less than 0.1 µM at PLK1 kinase domain and less than 0.5 µM in test [1].
